pEC50: −log10 of the molar value.
Experiments:
[1] = target: T1, human recombinant GSK3β (Homo sapiens, UniProt P49841); test: GSK-3β enzymatic assay (Z'-LYTE FRET); assay type: biochemical; details: 2 nM enzyme, 12.5 µM ATP, 2 µM substrate peptide, 60 min incubation at room temperature; read-out: GSK3β inhibition average EC50
T1 construct: 6His (N); purchased Millipore (Billerica, MA, USA)
Procedure: The enzymatic activity of GSK3β was determined with a commercial system based on the Z'-LYTE® technology, available from Invitrogen Life Technologies (Carlsbad, CA, USA), using human recombinant GSK3β (N-terminal 6His-tagged recombinant enzyme with an H350L mutation) from Millipore (Billerica, MA, USA) as the enzyme source. This technology utilizes the fluorescence resonance energy transfer ("FRET") process between fluorescein and coumarin. The assay principle is based on the differential sensitivity of phosphorylated and non-phosphorylated peptide to proteolytic cleavage, which precludes the energy transfer process between the two fluorophores attached to both sides of the cleavage site. […] The assay is performed in 384-well black plates, in a final volume of 10 µl, with 2 nM enzyme concentration in 50 mM Hepes pH 7.5, 50 mM MgCl2, 1 mM EGTA and 0.05% Brij-35, using 12.5 µM ATP and 2 µM substrate peptide. The latter is a synthetic peptide, provided by Invitrogen under the commercial name "Ser/Thr 9 peptide", and it is based upon the sequence of a GSK3β substrate protein (glycogen synthase I) containing Ser-641. The peptide is labeled at both ends with fluorescein and coumarin. The assay is carried out in the presence of different concentrations of the tested compound, at a final 1% (v/v) DMSO concentration. After a 60 min incubation at room temperature, 5 µl of a commercial protease solution (sold by the same vendor in the assay kit) is added and a subsequent 1h incubation at room temperature is performed, before adding 5 µl of a suitable "stop solution", also provided by the vendor in the kit. After that, fluorescence intensity is recorded, monitoring emission at both 445 and 520 nm, upon excitation at 400 nm. An emission ratio is finally calculated, using the quotient among the emission at 445 nm divided by that at 520 nm.
The emission ratio of each tested sample is normalized to that of the control wells, so that for every compound concentration the percentage of inhibition is calculated by using the following equation: %Inhibition = 100⋅(E-S)/(E-B) [formula] wherein "S" is the emission ratio of the sample being considered, "E" is the average emission ratio of wells, including enzyme in the absence of inhibitors, and "B" is the average emission ratio of wells without enzyme. The inhibition values obtained at every compound concentration are finally used to calculate the EC50 of the tested compound, this parameter being the concentration of the compound which causes 50% of inhibition. For that purpose, the data were fitted to a classical 4-parameters isotherm equation using the nonlinear regression function of GraphPad™ Prism 5.0 (GraphPad Software Inc.). Such equation is described below: % Inhibition = L + (H-L)/(1 + (((EC50)/(C)))^n) [formula] wherein "L" is the lower asymptote of the theoretical sigmoidal curve, "H" is the higher asymptote, "C" is the concentration of compound and "n" is the Hill coefficient.

[2] = system: phosphorylation at the Ser-396 residue of Tau protein in human neuroblastoma SH-SY5Y cells; test: Cellular assay: Tau Ser-396 phosphorylation by ELISA in SH-SY5Y cells; assay type: cell-based; details: 18 h incubation at 37°C, 1% (v/v) DMSO, read-out: pSer396-Tau average EC50
Procedure: The effect of the compound in cells is determined by monitoring the level of phosphorylation at the Ser-396 residue of Tau protein in human neuroblastoma SH-SY5Y cells. Cells are grown in 96-well plates: 30,000 cells per well in a volume of 100 µl of 1:1 MEM:Ham's F12 medium including 10% (v/v) fetal bovine serum, 100 U/ml penicillin, 100 µg/ml streptomycin and 1% (v/v) 100-fold concentrated commercial stock of non-essential aminoacids (Gibco, Carlsbad, CA, USA), and incubated at 37°C during 24 h. Then, the corresponding amount of test compound is added to the wells to reach the desired concentration in 1% (v/v) DMSO. […] 60 µl of this mixture is then placed in an empty 96-well plate and the levels of Ser-396 phosphorylation are determined using a commercial ELISA kit (Biosource, Carlsbad, CA, USA), following manufacturer's instructions. The levels of phosphorylation are expressed as percentage values, after normalizing them to those in untreated cells and those values are used to calculate EC50s, as described above for GSK-3.

T1 sequence (P49841 whole entry): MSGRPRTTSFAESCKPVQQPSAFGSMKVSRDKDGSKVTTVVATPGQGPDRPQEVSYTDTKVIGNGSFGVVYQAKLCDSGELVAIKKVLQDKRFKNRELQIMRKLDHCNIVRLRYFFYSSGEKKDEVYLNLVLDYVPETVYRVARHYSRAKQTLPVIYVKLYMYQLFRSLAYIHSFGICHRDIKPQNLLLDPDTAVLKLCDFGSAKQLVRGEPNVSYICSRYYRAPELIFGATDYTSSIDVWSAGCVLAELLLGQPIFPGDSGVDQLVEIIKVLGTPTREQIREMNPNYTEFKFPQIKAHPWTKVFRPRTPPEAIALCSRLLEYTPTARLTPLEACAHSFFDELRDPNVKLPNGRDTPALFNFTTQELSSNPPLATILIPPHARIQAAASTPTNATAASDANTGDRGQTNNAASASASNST

Row | pEC50 [1] | pEC50 [2] | Compound
1 | 6.54 | 5.38 | COC(=O)CN(C)C(=O)SSCc1ccccc1 [Compound 1, [Methyl-(4-phenyl-2,3-dithia-butyryl)-amino]-acetic acid methyl ester]
2 | 6.34 |  | CCOC(=O)CNC(=O)SSCc1ccccc1 [Compound 2, (4-Phenyl-2,3-dithia-butyrylamino)-acetic acid ethyl ester]
3 | 5.41 |  | CCOC(=O)[C@H](Cc1ccccc1)NC(=O)SSCc1ccccc1 [Compound 3, (2S) 3-Phenyl-2-(4-phenyl-2,3-dithia-butyrylamino)-propionic acid ethyl ester]
4 | 5.82 |  | CCOC(=O)[C@H](Cc1ccc(O)cc1)NC(=O)SSCc1ccccc1 [Compound 4, (2S) 3-(4-Hydroxy-phenyl)-2-(4-phenyl-2,3-dithia-butyrylamino)-propionic acid ethyl ester]
5 | 4.85 |  | CCOC(=O)[C@H](CC(C)C)NC(=O)SSCc1ccccc1 [Compound 5, (2S) 4-Methyl-2-(4-phenyl-2,3-dithia-butyrylamino)-pentanoic acid ethyl ester]
6 | 6.04 |  | CCOC(=O)CCNC(=O)SSCc1ccccc1 [Compound 7, 3-(4-Phenyl-2,3-dithia-butyrylamino)-propionic acid ethyl ester]
7 | 5.17 |  | CCOC(=O)CC[C@H](NC(=O)SSCc1ccccc1)C(=O)OCC [Compound 8, (2S) 2-(4-Phenyl-2,3-dithia-butyrylamino)-pentanedioic acid diethyl ester]
8 | 5.27 |  | CCOC(=O)[C@H](C)NC(=O)SSCc1ccccc1 [Compound 9, (2S) 2-(4-Phenyl-2,3-dithia-butyrylamino)-propionic acid ethyl ester]
9 | 5.06 |  | COC(=O)CC(NC(=O)SSCc1ccccc1)C(=O)OC (centres unmarked) [Compound 10]
10 | 5.48 |  | COC(=O)[C@@H](Cc1c[nH]c2ccccc12)NC(=O)SSCc1ccccc1 [Compound 11]
11 | 6.59 |  | CCOC(=O)CN(Cc1ccccc1)C(=O)SSCc1ccccc1 [Compound 12]
12 | 6.66 |  | CCOC(=O)CN(CC(=O)OCC)C(=O)SSCc1ccccc1 [Compound 13]
13 | 6.89 |  | COC(=O)[C@@H]1CCCN1C(=O)SSCc1ccccc1 [Compound 14]
14 | 5.89 |  | COC(=O)C(Cc1ccccc1)NC(=O)SSCc1ccccc1 (centres unmarked) [Compound 16]
15 | 6.33 |  | O=C(SSCc1ccccc1)N1C(=O)c2ccccc2C1=O [Compound 17]
16 | 5.00 |  | CN(C(=O)SSCc1ccccc1)C(=O)c1ccccc1 [Compound 18]
